# Patent US8835644B2, “Broad spectrum benzothiophene-nitrothiazolide and other antimicrobials” (University of Virginia Patent Foundation, priority 2009, dated 2014)
# Where two headings read alike, the source gives them in different places.
# Tests used:
# [1] = test system: C. jejuni; experiment: MIC testing by broth dilution, C. jejuni; format: cell-based, Campylobacter jejuni
# Procedure, shortened: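 Planktonic E. coli (LB) and S. epidermidis (Trypticase Soy), plus C. jejuni (Brain Heart Infusion), were exposed to a dilution series starting at 32 μg/ml. The C. difficile values are anaerobic zone ratios against NTZ.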
# [2] = test system: S. epidermidis 9142; experiment: Catheter adherence model; format: cell-based, Staphylococcus epidermidis; conditions: 24 h, dose dependent, within the IC50 range
# Method: An overnight culture of S. epidermidis 9142 was used to inoculate fresh TSB medium to a final OD600 of 0.01 in a volume of 3 ml in 15 ml screw capped tubes. Sterile sheets of polyurethane were divided into 1 cm square pieces and placed into tubes containing different concentrations of NTZ or controls containing DMSO. The tubes were incubated for 24 h with shaking. Each catheter portion was washed 3 times with sterile PBS, suspended in 4 ml sterile PBS and sonicated for 10 min in a sonic water bath. 10 μl of the sonicated fluid was diluted in fresh PBS and plated onto TSA plates and incubated at 37° C. overnight. Bacteria were enumerated (triplicate plates) and the mean and standard deviation were determined and reported as CFU/ml. Viability effects were corrected for by plating the supernatants from the 3 ml experiment for total bacterial counts.
# [3] = test system: EAEC strain 042; experiment: Quantitative biofilm assay, EAEC; format: cell-based, Escherichia coli
# Method: A quantitative biofilm assay was used to determine the effect of NTZ on biofilm formation (41). Strain 042 was grown overnight at 37° C. with shaking and inoculated 1:100 in 200 μl culture medium in Costar 96-well, flat-bottom, polystyrene microtiter plates containing appropriate concentrations of NTZ. Plates were incubated statically at 37° C. in a humidified incubator. At 24 h, bacterial growth was measured by either transferring […] aliquots to another microtiter plate to determine turbidity or by diluting 100 μl aliquots 1:100 in 9.9 ml PBS for quantitative plate counts on LB medium. Bacterial counts in triplicate are reported as cfu/ml. Biofilm was visualized following staining with 0.5% crystal violet (41) and the absorbance was read at 570 nm using a microplate reader (Molecular Dynamics). All experiments were in triplicate and reported as mean and standard deviation.
# Assays were initially performed with and without 25 μg/ml NTZ using five different growth media: DMEM, DMEM with 0.4% glucose, LB, LB with 0.4% glucose, and our chemically defined medium containing 1% glucose. E. coli DH5αt served as a negative control for biofilm formation. Assays were then run with increasing concentrations of NTZ (0, 5, 10, 15, 20, 25 μg/ml) both in the chemically defined medium and in DMEM with 0.4% glucose. […]
# [4] = test system: AafA fimbriae of EAEC 042; experiment: Fimbrial filaments by SDS-PAGE, immunoblot, immunofluorescence; format: cell-based, Escherichia coli; conditions: EAEC 042, MinA-G, 20 μg/ml
# Method: A simplified procedure for mechanical removal of fimbriae was modified from Dodd and Eisenstein (5). […] The cultures were spun down at 4,000 rpm for 5 min at 25° C. Pellets were resuspended in 2 ml PBS, vortexed 2× for 30 sec to shear off flagella and fimbriae, and then centrifuged at 8,000 rpm for 10 min to remove whole cells. The supernatants, containing fimbrial filaments, were transferred to new tubes, and 8 ml of acetone were added to precipitate proteins. Solutions were spun down again at 8,000 rpm for 10 min, and the acetone was decanted. The remaining protein pellets were resuspended in 50 μl PBS and 100 μl 3× loading buffer containing 2-mercaptoethanol.
# To analyze the proteins contained in the biofilm, the flasks were rinsed with water to remove residual bacteria, and the biofilms were dissolved in 1-2 ml 1% SDS. 50 μl of each solution was combined with 100 μl 3× loading buffer in PCR tubes. All five samples were run in a NuPAGE 4-12% Bis-Tris gel at 120 V and stained with Coomassie brilliant blue or used directly for transfer of proteins to nitrocellulose.
# Ponceau red stained nitrocellulose was used to visualize transferred proteins and immunoblotting protocols used in this study as described (14). […] The slides were washed 3× in PBS, dried and visualized with a Zeiss epi-fluorescence microscope.
structure (smiles),measurement,setting,value
"CC(=O)Oc1ccccc1C(=O)Nc1ncc([N+](=O)[O-])s1 [Nitazoxanide, 2-(acetyloxy)-N-(5-nitro-2-thiazolyl)benzamide, reference compound]",MIC,"[1]; 2-amino-3,5-dinitrothiophene analogues table, read-out: MIC C. jejuni",39.1 µM
same,MIC,"[1]; Campylobacter jejuni, Furan analogues table, read-out: MIC C. jejuni",39.1 µM
same,MIC,"[1]; Campylobacter jejuni, broth dilution, Brain Heart Infusion, 24 h, read-out: MIC (μM) C. jejuni",39.1 µM
same,MIC,"[1]; Thiophene analogues table, read-out: MIC C. jejuni",39.1 µM
same,Attachment to catheter material,[2],inhibited attachment
same,Inhibition of biofilm formation,"[3]; EAEC 042, MinA-G, 20 μg/ml",almost complete inhibition
same,IC50,"[3]; Escherichia coli, EAEC 042, DMEM and MinA-G media, read-out: IC50 biofilm production",~12 µg/mL
same,Fimbrial filaments from vortexed whole cells,[4],nearly absent
